{"source": "paper PMC6110922", "about": "“Inhibition of Chloride Intracellular Channel 1 (CLIC1) as Biguanide Class-Effect to Impair Human Glioblastoma Stem Cell Viability” (Frontiers in Pharmacology, 2018)", "target": "T1, chloride intracellular channel 1 (CLIC1) (Homo sapiens, UniProt O00299)", "T1 construct": "endogenous channel in GBM2 and GBM4 glioblastoma stem cells", "experiment": "perforated-patch whole-cell patch clamp, CLIC1 (IAA94-sensitive) current", "format": "cell-based", "note": "Counter-ions that a name gives are not always drawn."}
{"smiles": "CN(C)C(=N)NC(=N)N", "note": "[metformin, 1,1-dimethylbiguanide hydrochloride]", "values": [{"measurement": "perforated-patch whole-cell patch clamp, CLIC1 (IAA94-sensitive) current", "value": 10, "unit": "mM"}]}
{"smiles": "CC1(C)N=C(N)N=C(N)N1c1ccc(Cl)cc1", "note": "[cycloguanil]", "values": [{"measurement": "perforated-patch whole-cell patch clamp, CLIC1 (IAA94-sensitive) current", "value": 0.5, "unit": "mM"}]}
